Consider eleven compounds from ChEMBL document CHEMBL1127820 (J Med Chem, 1994).

Assay [1] deals with Norepinephrine transporter (Rattus norvegicus, UniProt Q9WTR4). Nature of the assay: Inhibition of [3H]nisoxetine binding to norepinephrine (NE) transporter.
In assay [2] the target is Sodium-dependent dopamine transporter (Rattus norvegicus, UniProt P23977). Nature of the assay: Inhibition of [3H]WIN-35428 binding to dopamine (DA) transporter.
The target of assay [3] is Sodium-dependent serotonin transporter (Rattus norvegicus, UniProt P31652). Put plainly: Inhibition of [3H]paroxetine binding to 5-hydroxytryptamine (5-HT) transporter.
Chain of Sodium-dependent serotonin transporter (P31652 whole entry): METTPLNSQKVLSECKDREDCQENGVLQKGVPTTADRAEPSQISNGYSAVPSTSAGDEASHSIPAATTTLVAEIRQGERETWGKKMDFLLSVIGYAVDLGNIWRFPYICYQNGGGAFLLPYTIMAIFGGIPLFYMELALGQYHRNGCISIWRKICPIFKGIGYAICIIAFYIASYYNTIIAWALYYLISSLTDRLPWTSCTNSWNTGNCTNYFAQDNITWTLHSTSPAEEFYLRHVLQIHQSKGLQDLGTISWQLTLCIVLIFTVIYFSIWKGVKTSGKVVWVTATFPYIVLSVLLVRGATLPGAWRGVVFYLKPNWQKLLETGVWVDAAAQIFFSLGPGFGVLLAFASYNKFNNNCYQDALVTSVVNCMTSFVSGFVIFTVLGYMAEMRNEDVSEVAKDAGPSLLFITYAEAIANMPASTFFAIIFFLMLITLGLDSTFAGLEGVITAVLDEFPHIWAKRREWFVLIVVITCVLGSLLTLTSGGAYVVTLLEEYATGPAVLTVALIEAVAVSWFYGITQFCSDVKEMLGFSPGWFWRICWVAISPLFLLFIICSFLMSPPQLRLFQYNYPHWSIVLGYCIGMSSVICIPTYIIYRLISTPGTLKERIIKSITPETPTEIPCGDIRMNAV

Chain of Sodium-dependent dopamine transporter (P23977 whole entry): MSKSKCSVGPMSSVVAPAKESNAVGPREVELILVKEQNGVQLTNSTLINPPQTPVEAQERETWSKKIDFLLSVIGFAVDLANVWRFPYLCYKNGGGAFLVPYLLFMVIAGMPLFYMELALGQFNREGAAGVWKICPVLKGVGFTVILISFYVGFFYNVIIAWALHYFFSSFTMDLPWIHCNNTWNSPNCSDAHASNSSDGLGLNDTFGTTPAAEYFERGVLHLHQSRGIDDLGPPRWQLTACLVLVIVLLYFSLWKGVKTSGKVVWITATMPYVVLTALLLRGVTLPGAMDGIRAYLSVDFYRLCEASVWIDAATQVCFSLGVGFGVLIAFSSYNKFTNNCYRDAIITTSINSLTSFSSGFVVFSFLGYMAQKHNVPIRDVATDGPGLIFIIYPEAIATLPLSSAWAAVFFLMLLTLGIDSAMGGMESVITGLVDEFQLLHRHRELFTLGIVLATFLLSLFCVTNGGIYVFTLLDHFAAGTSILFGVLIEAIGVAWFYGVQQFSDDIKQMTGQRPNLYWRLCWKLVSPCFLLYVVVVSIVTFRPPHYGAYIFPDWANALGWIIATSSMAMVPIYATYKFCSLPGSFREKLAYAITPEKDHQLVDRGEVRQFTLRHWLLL
Chain of Norepinephrine transporter (Q9WTR4 whole entry): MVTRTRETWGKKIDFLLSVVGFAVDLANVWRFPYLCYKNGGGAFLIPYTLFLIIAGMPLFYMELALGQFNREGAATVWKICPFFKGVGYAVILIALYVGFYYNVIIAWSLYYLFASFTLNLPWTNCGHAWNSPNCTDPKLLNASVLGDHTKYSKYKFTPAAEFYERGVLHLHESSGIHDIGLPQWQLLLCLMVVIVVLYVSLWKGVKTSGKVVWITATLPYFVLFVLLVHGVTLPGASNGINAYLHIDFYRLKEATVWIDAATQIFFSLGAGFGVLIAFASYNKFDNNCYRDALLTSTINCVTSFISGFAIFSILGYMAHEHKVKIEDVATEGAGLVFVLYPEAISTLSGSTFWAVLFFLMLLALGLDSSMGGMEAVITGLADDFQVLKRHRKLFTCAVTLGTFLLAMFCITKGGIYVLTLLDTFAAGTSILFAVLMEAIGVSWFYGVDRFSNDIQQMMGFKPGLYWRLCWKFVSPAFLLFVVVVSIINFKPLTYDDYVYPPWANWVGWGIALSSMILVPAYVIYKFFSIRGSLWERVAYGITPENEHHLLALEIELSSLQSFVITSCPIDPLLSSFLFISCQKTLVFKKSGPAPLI

For `COC(=O)[C@H]1[C@@H](c2ccc(F)cc2)C[C@H]2CC[C@H]1N2C`, in assay [1], the IC50 (usually the concentration that gives 50% inhibition) came out at 834 nM. This counts as sub-micromolar.
Take `COC(=O)C1C2CCC(C[C@@H]1c1ccc(F)cc1)N2` (stereo not given in full): the half-maximal inhibitory concentration (IC50) in assay [2] came to 4.39 nM; in assay [1], 18.8 nM; in assay [3], 68.6 nM.
The like results for `CCc1ccc([C@H]2C[C@H]3CCC(N3)[C@H]2C(=O)OC)cc1` were, in that order, 49.9 nM, 122 nM and 8.13 nM.
The like results for `CC(C)OC(=O)[C@@H]1C2CC[C@H](C[C@@H]1c1ccc(I)cc1)N2` were, in that order, 1.06 nM, 132 nM and 3.59 nM.
The like results for `COC(=O)[C@@H]1C2CC[C@H](C[C@@H]1c1ccc(I)cc1)N2` were, in that order, 0.69 nM, 7.54 nM and 0.36 nM.
`COC(=O)C1C2CCC(C[C@@H]1OC(=O)c1ccccc1)N2` (stereo not given in full): the IC50 in assay [2] was 206 nM; in assay [1], 139 nM; in assay [3], 127 nM.
Turning to `COC(=O)C1C2CCC(C[C@@H]1c1ccccc1)N2` (stereo not given in full), the IC50 in assay [2] worked out at 30.8 nM; in assay [1], 84.5 nM; in assay [3], 156 nM.
Regarding `COC(=O)C1C2CC[C@H](C[C@@H]1c1ccc(I)cc1)N2C` (stereo not given in full), the concentration for half-maximal inhibition (IC50) is 36 nM in assay [1] and 4.21 nM in assay [3].
Take `COC(=O)C1C2CCC(C[C@@H]1c1ccc(Cl)cc1)N2` (stereo not given in full): the IC50 in assay [2] is 0.62 nM; in assay [1] it was 5.45 nM; in assay [3], 4.13 nM.
Consider `CCc1ccc([C@H]2C[C@H]3CCC(C2C(=O)OC)N3C)cc1` (stereo not given in full), for which the figures for the IC50 in assay [2], in assay [1] and in assay [3] were 55 nM, 3910 nM and 28.4 nM, respectively.
The like results for `CC(C)OC(=O)C1C2CC[C@H](C[C@@H]1c1ccc(I)cc1)N2C` (stereo not given in full) were, in that order, 0.43 nM, 285 nM and 66.8 nM.
